# Laboratory results published in patent publication US20050118276A1, “Coated metal pyrithione particles for treatment of microorganisms” (Arch Chemicals, Inc., priority 2003, published 2005).
# System: Malassezia furfur
# Assay: comparative corneofungimetry bioassay on human stratum corneum strippings
# Assay type: cell-based
# Conditions: for Median positive fungal cells# from 20 samples: 9 days at 27° C., neutral red vital stain, counted by mm^2
# [1] = 1% zinc pyrithione water suspension
# [2] = formulated shampoo containing 1% zinc pyrithione
# Method: As a more advanced test, “corneofungimetry” was used to evaluate the particles prepared in accordance with the Example and Comparative Examples. This test is a good pre-clinical screening method because it requires growing the Malassezia furfur sp on a substrate that is more representative of its natural environment. Cyanoacrylate is used to harvest a layer of skin, and these skin surface strippings are treated with olive oil to simulate sebum. The prepared skin samples are then treated with the actives under investigation, inoculated with the microorganism of interest and incubated.
# The corneofungimetry bioassay was performed on normal stratum corneum harvested from 20 healthy volunteers using cyanoacrylate adhesive. Samples were dipped into olive oil and stored in a sterile environment for 3 days.
# Malassezia furfur was cultured on MLNA (Modified Leeming and Notman Agar) medium. Suspensions of fungal cells were prepared in physiologic saline (10^4-10^5 cells/ml). Aliquots of 250 μl of these suspensions were deposited onto the stratum corneum samples and incubated under moist conditions at 27° C. for 9 days. Samples were then stained using neutral red as a vital stain identifying living fungi growing on the human stratum corneum. The number of positive fungal cells was counted by mm^2 using computerized image analysis (Analysis Olympus). The medians and ranges were determined. Between-product comparisons were performed using the paired non-parametric Friedman test followed by the Dunn test.
substance,measurement,setting,value
zinc pyrithione [Uncoated],% killing compared to saline control,[1],44%
same,Median positive fungal cells# from 20 samples,[1],451
same,% killing compared to saline control,[2],52%
same,Median positive fungal cells# from 20 samples,[2],363
